# Source: ChEMBL document CHEMBL4340537, “A cross-linking approach to map small molecule-RNA binding sites in cells” (Bioorg Med Chem Lett, 2019)
# Active and inactive are the calls of the source. The calls are words filed in the database; no cut-off is given here. Numbered stars: 1 amine (or outer) side, 2 acyl side, 3 side chain; on linkers, the order of the positions; unused ones are H or OH. Square brackets hold non-standard residues; d marks the D form. Peptide text beside a SMILES is read from it. * marks the point of attachment. Biotinyl(3aR,4R,6aS) = O=C1N[C@@H]2[C@@H](CS[C@@H]2CCCCC(=O)*)N1; N(2-Aminoethyl)Gly = O=C(CN(CCN[*:3])[*:1])[*:2]; Chlorambucil = O=C(CCCc1ccc(N(CCCl)CCCl)cc1)*; Gly(N-propargyl) = C#CCNCC(=O)O; NPrGly = CCCNCC(=O)O
# Columns and labels:
# MCF-10A = assay: Induction of apoptosis in human MCF10A cells assessed as increase in caspase 3/7 activity up to 500 nM incubated for 48 hrs by caspase glo 3/7 assay; assay type: cell-based
# MDA-MB-231 [1] = assay: Binding affinity to pri-miR-96 RNA in human MDA-MB-231 cells assessed as reduction in matured miR-96 levels at 50 nM for 24 hrs by RT-qPCR method; assay type: cell-based
# MDA-MB-231 [2] = assay: Binding affinity to pri-miR-96 RNA in human MDA-MB-231 cells assessed as increase in FOXO1 protein expression at 50 nM for 24 hrs by RT-qPCR method; assay type: cell-based
# [3] = Binding affinity to 32P-labeled pri-miR-96 RNA (unknown origin) incubated for 4 hrs by streptavidin based liquid scintillation counting dependent pull down assay
# MDA-MB-231 [4] = assay: Induction of apoptosis in human MDA-MB-231 cells assessed as increase in caspase 3/7 activity up to 500 nM incubated for 48 hrs by caspase glo 3/7 assay; assay type: functional, cell-based
# MDA-MB-231 [5] = assay: Binding affinity to pri-miR-96 RNA in human MDA-MB-231 cells assessed as increase in RNA abundance at 50 nM for 24 hrs by RT-qPCR relative to control; assay type: cell-based
# microRNA 96 [6] = assay: Inhibition of miR-96 RNA in human MDA-MB-231 cells by TargetScan assay; assay type: cell-based
# microRNA 96 [7] = assay: Inhibition of miR-96 RNA in human MDA-MB-231 cells by volcano plot analysis; assay type: cell-based
# [8] = Binding affinity to pri-miR-96 RNA (unknown origin) at 1000 nM in presence of Targaprimir-96 by in vitro competitive (C-)Chem CLIP assay
Structure (SMILES),Activity (MCF-10A),Activity (MDA-MB-231 [1]),Activity (MDA-MB-231 [2]),Activity [3],Activity (MDA-MB-231 [4]),fold change (FC) (MDA-MB-231 [5]),inhibition (microRNA 96 [6]),inhibition (microRNA 96 [7]),Activity [8]
CCCN(CC(=O)N(CC(=O)N(CCNC(=O)CCCC[C@H]1SC[C@H]2NC(=O)N[C@H]21)CC(N)=O)Cc1cn(CCCNC(=O)CCCOc2c(C(C)(C)C)cc(-c3nc4cc(N5CCN(C)CC5)ccc4[nH]3)cc2C(C)(C)C)nn1)C(=O)CN(CCNC(=O)CCCc1ccc(N(CCCl)CCCl)cc1)C(=O)CCCOc1cccc(-c2nc3ccc(-c4nc5cc(N6CCN(C)CC6)ccc5[nH]4)cc3[nH]2)c1,Non-Toxic,,,,,,,,
"C#CCN(CC(=O)N(CCNC(=O)CCCC[C@H]1SC[C@H]2NC(=O)N[C@H]21)CC(N)=O)C(=O)CN(CCC)C(=O)CN(CCNC(=O)CCCc1ccc(N(CCCl)CCCl)cc1)C(C)=O (Ac-[N(2-Aminoethyl)Gly](Chlorambucil)[NPrGly][Gly(N-propargyl)][N(2-Aminoethyl)Gly](Biotinyl(3aR,4R,6aS))-NH2)",,inactive,inactive,inactive,inactive,,,,
CCCN(CC(=O)N(CC(=O)N(CCNC(=O)CCCC[C@H]1SC[C@H]2NC(=O)N[C@H]21)CC(N)=O)Cc1cn(CCCNC(=O)CCCOc2c(C(C)(C)C)cc(-c3nc4cc(N5CCN(C)CC5)ccc4[nH]3)cc2C(C)(C)C)nn1)C(=O)CN(CCNC(=O)CCCc1ccc(N(CCCl)CCCl)cc1)C(=O)CCCOc1cccc(-c2nc3ccc(-c4nc5ccc(N6CCN(C)CC6)cc5[nH]4)cc3[nH]2)c1,,Active,Active,Active,Active,1.5,Active,Active,inactive
CCCN(CC(=O)N(CCC)CC(=O)N(CC(N)=O)Cc1cn(CCCNC(=O)CCCOc2c(C(C)(C)C)cc(-c3nc4cc(N5CCN(C)CC5)ccc4[nH]3)cc2C(C)(C)C)nn1)C(=O)CCCOc1cccc(-c2nc3ccc(-c4nc5ccc(N6CCN(C)CC6)cc5[nH]4)cc3[nH]2)c1,Non-Toxic,Active,Active,,Active,1.5,,,
